Laboratory results taken from article PMC6259646, “Role of Intestinal Hydrolase in the Absorption of Prenylated Flavonoids Present in Yinyanghuo” (Molecules, 2011).

Columns and labels:
rat intestine = assay: four-site single-pass perfused rat intestinal model: effective permeability and metabolite formation; format: in vivo; settings: for metabolites detected in the perfusate: HPLC; for identity of intestinal metabolite: rat intestinal perfusate, LC/MS/MS, loss of saccharide group at C7
From the text: Male Sprague-Dawley rats weighing between 250 and 300 g were obtained from the SLEK Lab Animal Center of Shanghai (Shanghai, China). The rats were fed with water and a standard diet. The rats were fasted overnight before the day of the experiment.
The surgical procedures were approved by the Animal Ethics Committee of Jiangsu Provincial Academy of Chinese Medicine. Anesthesia was induced by an i.m. injection of urethane (0.5 g/mL). After the rat was anesthetized, it was put over a heating blanket and under a heating lamp to keep its normal body temperature. We then cannulated four segments of the intestine, each with two cannulae. After each cannula was inserted, it was secured with a sterilized black suture before the next cannula was inserted and secured. First, the duodenum was located as the intestinal segment immediately adjacent to the stomach, and two cannulae at 10 cm apart were inserted into two ends of the duodenum and secured with suture. Next, the jejunum was located below the duodenum, and the first cannula was inserted at 4 cm below the duodenal outlet cannula, whereas the second cannula was inserted at 10 cm below the first jejunal cannula. Then, the terminal ileum was located by identifying the ileocecal junction of the rat intestine. The outlet cannula was inserted into the ileum at 2 cm above the junction, and the inlet cannula was inserted 10 cm above the outlet cannula. Lastly, the colon inlet cannula was inserted into the colon at 2 cm below the junction, and the outlet cannula was inserted through the anus. After cannulation, the small intestinal segments were placed carefully into the abdominal cavity, avoiding crimping or kinking of the segments. The incision was then covered by a normal saline-wetted paper towel. A piece of plastic wrap was put on the towel to keep the intestinal segments moist. Additionally, caution was also exercised to keep the inlet and outlet cannulate at the same height to avoid gravitational flow. To keep the temperature of the perfusate constant, the inlet cannulate was kept warm by a 37°C circulating water bath.
This is a single-pass perfusion method. Four segments of the intestine (duodenum, upper jejunum, terminal ileum, and colon) were perfused simultaneously with a perfusate containing the compound of interest using an infusion pump (Harvard Apparatus, Cambridge, MA, USA) at a flow rate of 0.2 mL/min. After a 30-min washout period, which is usually sufficient to achieve the steady-state absorption, four samples were collected from the outlet cannulae every 30 min afterward. After perfusion, the length of the intestine was measured as described previously The outlet concentrations of the test compounds in the luminal perfusate were determined by HPLC or LC/MS/MS.
The samples were separated on a Zorbax SB-C18 column (250 mm × 4.6 mm, 5 μm, Agilent). The mobile phase consisted of acetonitrile (A) and water containing 0.1% acetic acid (B). […] For MS analysis, the electro spray ionization (ESI) source was operated in the positive ion mode.
In the perfused rat intestinal model, Peff^* (effective permeability) is a representation of the intestinal membrane permeability. Peff^* of the compounds are calculated using the following equations: Peff^∗=1−Cm/Co/4Gz where Co and Cm are inlet and outlet concentrations, respectively; Gz, or Graetz number ( Gz=πDL/2Q ), is a scaling factor that incorporates flow rate (Q), intestinal length (L), and diffusion coefficients (D) to make the permeability dimensionless. Cm was adjusted for water flux, data points were discarded if the water flux exceeded 0.5%/cm of intestine.

[1] = system: lactase phlorizin hydrolase; assay: co-perfusion with LPH inhibitor gluconolactone in perfused rat intestinal model: inhibition of hydrolysis; format: in vivo; settings: 10 μM flavonoid co-perfused with gluconolactone (40μM)
Procedure: This is a single-pass perfusion method. […] After a 30-min washout period, which is usually sufficient to achieve the steady-state absorption, four samples were collected from the outlet cannulae every 30 min afterward. After perfusion, the length of the intestine was measured as described previously The outlet concentrations of the test compounds in the luminal perfusate were determined by HPLC or LC/MS/MS. […] The total gluconolactone concentration was 40μM. After perfusion, perfusates were collected and determined by HPLC. […] The accuracy and precision were greater than 98%.

Compound: COc1ccc(-c2oc3c(CC=C(C)C)c(O)cc(O)c3c(=O)c2O[C@@H]2O[C@@H](C)[C@H](O)[C@@H](O)[C@H]2O)cc1 [baohuoside I]
- metabolites detected in the perfusate (rat intestine): no metabolites were detected

Compound: COc1ccc(-c2oc3c(CC=C(C)C)c(OC4OC(CO)C(O)C(O)C4O)cc(O)c3c(=O)c2OC2OC(C)C(O)C(O)C2OC2OC(C)C(O)C(O)C2O)cc1 (stereo not shown) [epimedin C]
- metabolites detected in the perfusate (rat intestine): one metabolite
- identity of intestinal metabolite (rat intestine): 2″-O-rhamnosylicariside II
- hydrolysis inhibition rate, colon [1]: 35%
- hydrolysis inhibition rate, duodenum [1]: 42%
- hydrolysis inhibition rate, ileum [1]: 52%
- hydrolysis inhibition rate, jejunum [1]: 40%

Compound: COc1ccc(-c2oc3c(CC=C(C)C)c(O[C@@H]4O[C@H](CO)[C@@H](O)[C@H](O)[C@H]4O)cc(O)c3c(=O)c2O[C@@H]2O[C@@H](C)[C@H](O)[C@@H](O)[C@H]2O)cc1 [icariin]
- metabolites detected in the perfusate (rat intestine): two metabolites
- identity of intestinal metabolite (rat intestine): baohuoside I
- hydrolysis inhibition rate, colon [1]: 46%
- hydrolysis inhibition rate, duodenum [1]: 62%
- hydrolysis inhibition rate, ileum [1]: 40%
- hydrolysis inhibition rate, jejunum [1]: 50%

Compound: COc1ccc(-c2oc3c(CC=C(C)C)c(OC4OC(CO)C(O)C(O)C4O)cc(O)c3c(=O)c2OC2OC(C)C(O)C(O)C2OC2OCC(O)C(O)C2O)cc1 (stereo not shown) [epimedin B]
- metabolites detected in the perfusate (rat intestine): one metabolite
- identity of intestinal metabolite (rat intestine): sagittatoside B
- hydrolysis inhibition rate, colon [1]: 22%
- hydrolysis inhibition rate, duodenum [1]: 42%
- hydrolysis inhibition rate, ileum [1]: 74%
- hydrolysis inhibition rate, jejunum [1]: 40%

Compound: COc1ccc(-c2oc3c(CC=C(C)C)c(OC4OC(CO)C(O)C(O)C4O)cc(O)c3c(=O)c2OC2OC(C)C(O)C(O)C2OC2OC(CO)C(O)C(O)C2O)cc1 (stereo not shown) [epimedin A]
- metabolites detected in the perfusate (rat intestine): one metabolite
- identity of intestinal metabolite (rat intestine): sagittatoside A
- hydrolysis inhibition rate, colon [1]: 14%
- hydrolysis inhibition rate, duodenum [1]: 55%
- hydrolysis inhibition rate, ileum [1]: 21%
- hydrolysis inhibition rate, jejunum [1]: 26%
